Experimental findings from ChEMBL document CHEMBL3751777, “Important Hydrogen Bond Networks in Indoleamine 2,3-Dioxygenase 1 (IDO1) Inhibitor Design Revealed by Crystal Structures of Imidazoleisoindole Derivatives with IDO1” (J Med Chem, 2016) are described below.

The target in data set [1] is T1, Indoleamine 2,3-dioxygenase 1 (Homo sapiens, UniProt P14902). The data set is described as follows: Inhibition of recombinant human IDO1 assessed as conversion of […] incubated for 1 hr by fluorescence analysis.
T1 sequence (P14902 whole entry): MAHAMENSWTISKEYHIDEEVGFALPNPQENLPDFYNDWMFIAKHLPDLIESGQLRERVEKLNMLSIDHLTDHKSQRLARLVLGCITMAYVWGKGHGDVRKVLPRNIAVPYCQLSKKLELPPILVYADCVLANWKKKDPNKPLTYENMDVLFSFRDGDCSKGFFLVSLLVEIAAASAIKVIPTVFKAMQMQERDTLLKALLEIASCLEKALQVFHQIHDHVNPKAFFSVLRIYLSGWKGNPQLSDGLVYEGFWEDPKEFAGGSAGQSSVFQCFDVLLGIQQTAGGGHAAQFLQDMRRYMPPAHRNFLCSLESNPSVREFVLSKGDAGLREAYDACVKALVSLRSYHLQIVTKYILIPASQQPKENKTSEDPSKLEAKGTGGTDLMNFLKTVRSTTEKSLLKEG
For data set [2], the target named is T1, Indoleamine 2,3-dioxygenase 1. The data set is described as follows: Inhibition of IDO1 in IFNgamma-stimulated human HeLa cells incubated for 24 hrs. Format: cell-based.
Data set [3] has as its system Mus musculus. Put plainly: Reduction of kynurenine in LPS-stimulated mouse tissue at 50 mg/kg, po by LC/MS/MS analysis. Format: functional. Also on record: scale not given: the % may be the effect or the level left.
The nature of data set [4]: Toxicity in dog administered as bid for 28 days. Format: organism-based, Canis lupus familiaris. The following applies: in vivo.
The subject of data set [5] is Mus musculus. Put plainly: Reduction of kynurenine in LPS-stimulated mouse plasma at 50 mg/kg, po by LC/MS/MS analysis. Type of data set: functional. Also on record: scale not given: the % may be the effect or the level left.
Data set [6] is described as follows: Toxicity in rat administered as bid for 28 days. Type of data set: organism-based. The settings on record: in vivo.

`OC(CC1Nc2ccccc2-c2cncn21)C1CCCCC1` (stereo not drawn): the IC50 in data set [1] was found to be 1.14 µM. Moreover, the EC50 in data set [2] is > 10 µM. In the case of `OC(Cn1c2ccccc2c2ccncc21)C1CCCCC1` (stereo not drawn), the IC50 in data set [1] was > 10 µM. Turning to `OC(CC1c2ccccc2-c2cncn21)C1CCCCC1` (mixture of isomers), the Activity in the data set on Mus musculus [3] and in the data set on Mus musculus [5] was 50% in each case. Further, the NOAEL at 672 h in data set [4] and in data set [6] was 80 mg/kg/day each time. On to `OC(Cn1c2ccccc2c2cccnc21)C1CCCCC1` (stereo not drawn), for which the IC50 in data set [1] is > 10 µM. Turning to `OC(CC1c2ccccc2-c2cnnn21)C1CCCCC1` (stereo not drawn), the IC50 in data set [1] is > 10 µM. In addition, the half-maximal effective concentration (EC50) in data set [2] is > 10 µM.

For the compound `O=C(Cn1c2ccccc2c2cccnc21)C1CCCCC1`, the IC50 in data set [1] was > 10 µM. With `Cc1ncc2n1C(CC(O)C1CCCCC1)c1ccccc1-2` (stereo not drawn), in data set [1], the IC50 is > 10 µM. For the same compound, the EC50 in data set [2] is > 10 µM.

The IC50 is the concentration that gives 50% inhibition. A word on the EC50: it is the concentration that produces a half-maximal response. For orientation: NOAEL means the highest tested level that showed no adverse finding.
